Measurements: patent US20090221538A1, “METHODS OF TREATING MULTIPLE SCLEROSIS BY ADMINISTERING PULSE DOSE CALCITRIOL” (priority 2008, published 2009)
“And” between values parts separate entries of the source, which are not always exact repeats. Equal values may be shown once. Marks after values point to notes of the source that are not given here.

Tested on: B10.PL mice with acute EAE
Assay: Treatment of MBP-induced acute EAE in B10.PL mice, daily clinical EAE disability score
Type: in vivo
Design: key to cumulative disability (sum of daily disability scores; mean) / Cumulative disability / EAE severity (initial) / Remission (minimum) / EAE severity (final) / EAE severity (decrease): EAE score 0 = normal to 5 = moribund; cumulative = sum of daily scores
Details: for EAE severity (initial): score at randomization
Procedure: Breeding pairs of B10.PL-H2^uH2-T18^a/(73NS)/SnJ (hereafter B10.PL) mice were purchased from the Jackson Laboratory (Bar Harbor, Me.). The experimental B10.PL mice were either bred in the pathogen-free mouse colony at the University of Wisconsin Department of Biochemistry, or purchased from the Jackson Laboratory. Mice were housed at 23° C. with 40-60% humidity, 12 hr light-dark cycles, and ad libidum access to water. Unless stated otherwise, the mice were fed Lab Diet #5008 (PMI Nutrition International, Inc., Brentwood, Mo.) containing 0.33 μg/d vitamin D3 and 1% calcium. Experiments used male and female mice aged 6-8 wks (age- and sex-matched within experiments). The University of Wisconsin College of Agricultural and Life Sciences Institutional Animal Care and Use Committee approved all of the experimental protocols.
Bovine myelin basic protein (Sigma Chemical Co., St. Louis, Mo.) was dissolved at 2 mg/mL in 0.1 N acetic acid and emulsified with Complete Freund's adjuvant containing heat-killed Mycobacterium tuberculosis H37 Ra solution (Difco). Each mouse was injected subcutaneously with 0.1 mL emulsion in each hind flank (400 micrograms of MBP per mouse). On the day of immunization and again 2 days later, 200 nanograms of pertussis toxin was injected into the peritoneum. Thereafter, clinical EAE signs were scored daily as follows: 0, normal; 1, limp tail; 1.5, partial paralysis of one hind limb; 2, partial paralysis of both hind limbs; 2.5 partial paralysis of one hind limb and complete paralysis of one hind limb; 3, paralysis of both hind limbs; 4, hind and fore limb paralysis; 5, moribund.
The vitamin D3 and 1,25-(OH)2D3 were obtained from Sigma Chemical Co. The vitamin D3 was dissolved in safflower oil and stored in the dark at 5° C. The 1,25-(OH)2D3 was dissolved in 100% ethanol (1 mg/mL) and stored in the dark under nitrogen gas at −20° C. The concentration of 1,25-(OH)2D3 was determined by spectral analysis. Animals with stage 2.3±0.3 were randomized into treatment groups. The details of the treatments are given in the figure legends and table footnotes. The synthetic diet used in some experiments was formulated to contain all essential nutrients except vitamin D3 and was prepared exactly as we described (Spach and Hayes, 2005, J. Immunol. 175:4119-4126). For experiments using supplementary vitamin D3, the placebo group was fed the synthetic diet ad libidum without added vitamin D3, whereas the vitamin D3-supplemented group was fed the synthetic diet ad libidum with vitamin D3 added in an amount to provide 1 μg/d, calculated based on a daily measured consumption of 4.0 g dry weight of diet per mouse. Fresh synthetic diet was provided three times per week. At several times during the study, mice were weighed and blood samples were obtained from the tail vein. At the conclusion of the study, the mice were euthanized, a blood sample was obtained, perfusion was done, and the spinal cords and optic nerves were removed. The spinal cords were flash frozen with liquid nitrogen and stored at −70° C. prior to 1,25-(OH)2D3 extraction. Alternatively, the spinal cords were divided into 6 equal sections, aligned vertically, snap frozen in O.C.T. compound (Sakura Finetek USA, Torrance, Calif.) and stored at −70° C. for histopathology. The blood was clotted, centrifuged, and the decanted serum was frozen at −70° C. prior to analysis.
Individual mice were analyzed and the mean and SD were calculated for each group of mice. Experiments were repeated at least once. The significance of differences between the group means was determined using the Mann-Whitney test (n≦16), Student's t-test (n>16), or Chi-squared test (binomial data); p<0.05 was considered significant.

[1] = female B10.PL mice, chow-fed, 20 ng pulse dose, 14 days post treatment
[2] = female B10.PL mice, chow-fed, 200 ng injected once each week, 21 days
[3] = female B10.PL mice, chow-fed, 200 ng injected once, 21 days post treatment
[4] = female B10.PL mice, chow-fed, 200 ng pulse dose, 14 days post treatment
[5] = female B10.PL mice, chow-fed, 400 ng pulse dose, 14 days post treatment
[6] = female and male B10.PL mice, chow-fed, 0.5 (female) or 1.0 (male) nmol injected once, 14 days post treatment
[7] = male B10.PL mice, chow-fed, 20 ng pulse dose, 14 days post treatment
[8] = male B10.PL mice, chow-fed, 40 ng pulse dose, 14 days post treatment
[9] = male B10.PL mice, chow-fed, 200 ng pulse dose, 14 days post treatment
[10] = male B10.PL mice, chow-fed, 400 ng pulse dose, 14 days post treatment
[11] = male and female B10.PL mice, 200 ng 1,25-(OH)2D3 injected, 5 μg vitamin D3 gavage 24 hr later, diet 1 μg/d vitamin D3
[12] = methyl-prednisolone 200 μg/d followed by one 1,25-(OH)2D3 treatment, 28-day observation period

C=C1/C(=C\C=C2/CCC[C@]3(C)[C@@H]([C@H](C)CCCC(C)(C)O)CC[C@@H]23)C[C@@H](O)C[C@@H]1O [1,25-(OH)2D3, 1,25-dihydroxy vitamin D3]
relative potency for the treatment of acute EAE disability (0.5 nmol (females) or 1.0 nmol (males), compared with methyl-prednisolone): far superior to methyl-prednisolone
reduction of cumulative disability (200 ng 1,25-(OH)2D3 pulse dose plus vitamin D3 (serum 25-(OH)D3 82±27), 42 day observation period): 48%
cumulative disability lower than the placebo group (chow-fed mice with acute EAE, weekly injections of 200 ng): 43%
EAE severity (decrease) [1]: 0.5 ± 1.0
EAE severity (final) [1]: 1.6 ± 1.0
Remission (%) [1]: 75%
Remission (days in) [1]: 8.0 ± 6.3 days
Remission (days to) [1]: 2.0 ± 0.0 days
EAE severity (initial) (female B10.PL mice, chow-fed, 20 ng pulse dose): 2.1 ± 0.1
Cumulative disability (female B10.PL mice, chow-fed, 20 ng pulse dose, sum of daily scores for 14 days): 22.1 ± 9.0
EAE severity (peak) [2]: 2.4 ± 0.4
Remission [2]: 15.7 ± 3.4 days
Remission (%) [2]: 100%
Remission (minimum) [2]: 1.0 ± 0.0
EAE severity (initial) (female B10.PL mice, chow-fed, 200 ng injected once each week): 2.3 ± 0.5
Cumulative disability (female B10.PL mice, chow-fed, 200 ng injected once each week, sum of daily scores for 21 days): 31.6 ± 5.1
EAE severity (peak) [3]: 2.7 ± 0.4
Remission [3]: 13.4 ± 3.9 days
Remission (minimum) [3]: 1.0 ± 0.4
Remission (%) (female B10.PL mice, chow-fed, 200 ng injected once, 21 days post treatment, remission = score ≦1.5 for two or more consecutive days): 100%
EAE severity (initial) (female B10.PL mice, chow-fed, 200 ng injected once): 2.6 ± 0.4
Cumulative disability (female B10.PL mice, chow-fed, 200 ng injected once, sum of daily clinical scores for 21 days): 32.9 ± 9.3
EAE severity (decrease) [4]: 1.6 ± 0.4
EAE severity (final) [4]: 1.0 ± 0.4
Remission (%) [4]: 100%
Remission (days in) [4]: 9.2 ± 2.5 days
Remission (days to) [4]: 5.8 ± 2.5 days
EAE severity (initial) (female B10.PL mice, chow-fed, 200 ng pulse dose): 2.6 ± 0.4
Cumulative disability (female B10.PL mice, chow-fed, 200 ng pulse dose, sum of daily scores for 14 days): 21.8 ± 4.6
EAE severity (decrease) [5]: 1.2 ± 0.2
EAE severity (final) [5]: 1.0 ± 0.0
Remission (%) [5]: 100%
Remission (days in) [5]: 9.6 ± 3.0 days
Remission (days to) [5]: 6.2 ± 3.3 days
EAE severity (initial) (female B10.PL mice, chow-fed, 400 ng pulse dose): 2.2 ± 0.2
Cumulative disability (female B10.PL mice, chow-fed, 400 ng pulse dose, sum of daily scores for 14 days): 20.6 ± 5.2
Cumulative disability [6]: 19.7 ± 4.4
EAE severity (decrease) [6]: 1.2 ± 0.6
Remission (%) [6]: 92%
Remission (days in) [6]: 10.0 ± 2.2 days
Remission (days to) [6]: 4.9 ± 2.2 days
EAE severity (initial) (female and male B10.PL mice, chow-fed, 0.5 (female) or 1.0 (male) nmol of steroid compound injected once): 2.3 ± 0.4
effectiveness for the treatment of EAE (female mice, chow-fed, 20 ng pulse dose): partially effective
remission lasted an average of, before a relapse occurred (female mice, chow-fed, 200 ng pulse dose): 14 days
mice that achieved a remission (EAE≦1.5 for at least two consecutive days) (female mice, chow-fed, 200 ng pulse dose, within 6 days): 100%
EAE severity (decrease) [7]: 0.7 ± 0.4
EAE severity (final) [7]: 1.4 ± 0.5
Remission (%) [7]: 80%
Remission (days in) [7]: 6.6 ± 4.6 days
Remission (days to) [7]: 6.3 ± 2.2 days
EAE severity (initial) (male B10.PL mice, chow-fed, 20 ng pulse dose): 2.1 ± 0.2
Cumulative disability (male B10.PL mice, chow-fed, 20 ng pulse dose, sum of daily scores for 14 days): 24.2 ± 6.2
EAE severity (decrease) [8]: 0.5 ± 1.2
EAE severity (final) [8]: 1.7 ± 1.0
Remission (%) [8]: 80%
Remission (days in) [8]: 8.0 ± 4.6 days
Remission (days to) [8]: 4.5 ± 1.7 days
EAE severity (initial) (male B10.PL mice, chow-fed, 40 ng pulse dose): 2.2 ± 0.4
Cumulative disability (male B10.PL mice, chow-fed, 40 ng pulse dose, sum of daily scores for 14 days): 25.0 ± 9.0
EAE severity (decrease) [9]: 1.0 ± 0.4
EAE severity (final) [9]: 1.3 ± 0.4
Remission (%) [9]: 100%
Remission (days in) [9]: 11.9 ± 2.0 days
Remission (days to) [9]: 6.3 ± 2.4 days
EAE severity (initial) (male B10.PL mice, chow-fed, 200 ng pulse dose): 2.3 ± 0.3
Cumulative disability (male B10.PL mice, chow-fed, 200 ng pulse dose, sum of daily scores for 14 days): 22.1 ± 3.5
EAE severity (decrease) [10]: 1.2 ± 0.2
EAE severity (final) [10]: 0.8 ± 0.3
Remission (%) [10]: 86%
Remission (days in) [10]: 11.0 ± 1.4 days
Remission (days to) [10]: 4.2 ± 1.7 days
EAE severity (initial) (male B10.PL mice, chow-fed, 400 ng pulse dose): 2.1 ± 0.4
Cumulative disability (male B10.PL mice, chow-fed, 400 ng pulse dose, sum of daily scores for 14 days): 16.9 ± 2.5
Remission [11]: 36 ± 6 days
Remission (%) [11]: 100* %
mortality [11]: 0%
Cumulative disability (male and female B10.PL mice, 200 ng 1,25-(OH)2D3 injected, 5 μg vitamin D3 gavage, diet 1 μg/d vitamin D3, sum of daily scores for first 42 days post treatment): 50 ± 14
Cumulative disability [12]: 36±10
reduction of cumulative disability vs placebo group [12]: 42%
amelioration of EAE disease (mice with normal serum 25-(OH)D3 levels, 200 ng pulse dose in females and 400 ng pulse dose in males): optimally ameliorated EAE disease
mice that did not relapse (one 1,25-(OH)2D3 treatment (females 200 ng; males 400 ng) after withdrawal of 200 μg/d methyl-prednisolone, 28-day observation period): 4 of 6
days in remission before relapse (remaining two mice) (one 1,25-(OH)2D3 treatment (females 200 ng; males 400 ng) after withdrawal of methyl-prednisolone): 14 days and 23 days
